Assays:
Rab10 pThr73 [1] = experiment: Rab10 Thr73 dephosphorylation (immunoblot) in LRRK2^G2019S MEFs; assay type: cell-based; settings: Mus musculus, read-out: pRab10 inhibited in LRRK2^G2019S MEFs
Rab10 pThr73 [2] = experiment: as above; assay type: cell-based, mouse; settings: Mus musculus; for inhibition at 1 µM: read-out: pRab10 inhibited in LRRK2^G2019S MEFs; for EC50: dose response, 4 h treatment, read-out: G2019S MEFs-pRab10-dephosphorylation EC50
Rab10 pThr73 [3] = experiment: Rab10 Thr73 dephosphorylation (immunoblot) in WT MEFs; assay type: cell-based, mouse; settings: Mus musculus; for inhibition at 0.033 µM / inhibition at 1 µM: read-out: pRab10 inhibited in WT MEFs; for EC50: dose response, 4 h treatment, read-out: WT MEFs pRab10-dephosphrylation EC50
In short: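 Wild-type mouse embryonic fibroblasts in 6-well plates were treated with LRRK2 PROTACs, with two biological replicates per condition. Cells were washed in PBS and lysed on ice in buffer containing phosphatase and protease inhibitors plus 1% Triton X-100, then clarified at 15,000 g. Rab10 Thr73 phosphorylation was measured by quantitative immunoblotting of 15 to 20 μg protein on 4-12% Bis-Tris gels.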

LRRK2^WT = biological target: T1, LRRK2^WT (Mus musculus, UniProt Q5S006); experiment: Western blot LRRK2 degradation in WT MEFs; assay type: cell-based; settings: dose response, 4 h treatment; for Dmax: read-out: Dmax on WT MEFs
T1 construct: endogenous in cells; host or cells: primary wild-type mouse embryonic fibroblasts (MEFs)
Experimental: (§1) Western blot degradation assays for the LRRK2 protacs were performed with WT and PD-associated LRRK2 [G2019S] mouse embryonic fibroblasts (MEFs). The second-generation PROTACs were tested in parallel with the first generation PROTACs SD75, SD82, and SD100. The compounds were tested at 33 nM or […] concentrations for 4 hours or 24 hours, running two biological replicates per condition and achieving quantifications representative of both replicates. Analysis by quantitative immunoblotting was performed with readouts of the total LRRK2 (antibody recognizes epitope in C-terminus of protein), Rab10 pThr73 (physiological substrate) and LRRK2 pSer935 (biomarker phosphorylation site).
(§2) Primary MEFs were generated as described in a previous study (Wiggin et al., Mol. Cell Biol. 2002 April; 22(8):2871-81.). Briefly, the uterine horn was collected from adult female mice at day E12.5 and transferred to a 10 cm tissue culture dish containing cold PBS. Two forceps were used to tear the yolk sacs to isolate each embryo. Forceps were cleaned thoroughly with 70% ethanol between each embryo isolation. The embryos were culled, and a tissue piece was collected in a PCR tube for genotyping. The red tissue of the embryo, which grows to become the heart and liver, was removed. The remainder of the embryo was minced with a scalpel blade and incubated with 7.5 ml trypsin-EDTA solution for 10 minutes in a 37° C. tissue culture CO2 incubator. The dish was removed from the incubator and checked under a light microscope for single cells. 7.5 ml complete media was added to the trypsinised cells, and the cell suspension was transferred to a 15 ml Falcon tube, centrifuged at 1200 rpm for 5 minutes at room temperature. The trypsin was aspirated, the cell pellet was resuspended in 5 ml fresh complete media, and the cell suspension was plated in a 60 mm tissue culture dish and incubated in a 37° C., 5% CO2 tissue culture incubator. The MEFs at this stage were considered as passage 0 and were passaged and expanded for experimental use once the genotype was confirmed by allelic sequencing and immunoblotting. MEFs were cultured in Dulbecco's modified Eagle medium (DMEM) containing 10% (v/v) fetal bovine serum (FBS), 2 mM L-glutamine, 100 U/ml penicillin, and 100 μg/ml streptomycin supplemented with 1× non-essential amino acids and 1 mM sodium pyruvate.
Culturing and passaging of adherent cell lines were carried out using aseptic technique in CL1 or CL2 (for PBMC isolation) biological safety cabinets. All cells were incubated in a 37° C. incubator with 5% CO2. Cell lines were regularly tested for mycoplasma contamination. For western blot assay, the cells were seeded in 6-well plates. After treating with testing compounds at indicated concentrations and time period, the media was removed and the cells were washed with PBS and lysed in 100 μl ice-cold complete lysis buffer containing 50 mM Tris-HCl pH 7.4, 1 mM EGTA, 10 mM 2-glycerophosphate, 50 mM sodium fluoride, 5 mM sodium pyrophosphate, 270 mM sucrose, supplemented with 1 μg/ml microcystin-LR, 1 mM sodium orthovanadate, complete EDTA-free protease inhibitor cocktail (Roche) and 1% (v/v) Triton X-100. The cells were immediately placed on ice and were scraped and collected into 1.5 ml Eppendorf tubes. Cell lysates were incubated on ice for 10 minutes prior to centrifugation at 15,000 g at 4° C. for 15 minutes. The cell pellet was discarded, and supernatant was collected for analysis by quantitative immunoblotting. For long term storage, the supernatant was flash frozen and stored at −80° C. Protein concentrations of cell lysates were determined using the Bradford assay.
Cell lysates containing a quarter of a volume of 4× NuPAGE LDS sample buffer (NP0007) supplemented with 5% β-mercaptoethanol, were heated at 95° C. for 5 minutes. […]

LRRK2^G2019S = biological target: T2, LRRK2^G2019S (Mus musculus, UniProt Q5S006, G2019S); experiment: Western blot LRRK2 degradation in LRRK2^G2019S MEFs; assay type: cell-based; settings: dose response, 4 h treatment; for Dmax: read-out: Dmax on G2019S MEFs
T2 construct: endogenous in cells; host or cells: LRRK2[G2019S] mouse embryonic fibroblasts (MEFs)
Experimental: as §1, with “The” for “Western blot degradation assays for the LRRK2 protacs were performed with WT and PD-associated LRRK2 [G2019S] mouse embryonic fibroblasts (MEFs). The”
as §2
Culturing and passaging of adherent cell lines were carried out using aseptic technique in CL1 or CL2 (for PBMC isolation) biological safety cabinets. All cells were incubated in a 37° C. incubator with 5% CO2. Cell lines were regularly tested for mycoplasma contamination. For western blot assay, the cells were seeded in 6-well plates. […] The cells were immediately placed on ice and were scraped and collected into 1.5 ml Eppendorf tubes. Cell lysates were incubated on ice for 10 minutes prior to centrifugation at 15,000 g at 4° C. for 15 minutes. The cell pellet was discarded, and supernatant was collected for analysis by quantitative immunoblotting. For long term storage, the supernatant was flash frozen and stored at −80° C. Protein concentrations of cell lysates were determined using the Bradford assay.
Cell lysates containing a quarter of a volume of 4× NuPAGE LDS sample buffer (NP0007) supplemented with 5% β-mercaptoethanol, were heated at 95° C. for 5 minutes. 15 to 20 μg of samples were loaded onto pre-cast 4-12% Bis-Tris midi 20W or 26W gels (Thermofisher Scientific®, Cat #WG1402BOX or WG1403BOX) and resolved at 130 V for 2 hours with NuPAGE MOPS SDS running buffer (Thermofisher Scientific® Cat #NP0001-02). Proteins were electrophoretically transferred onto a 0.45 μm nitrocellulose membrane (GE Healthcare, Amersham Protran® Supported 0.45 mm NC) at 90 V for 90 min on ice in transfer buffer (48 mM Tris base and 39 mM glycine supplemented with 20% methanol). The transferred membrane was blocked with 5% (w/v) skim milk powder dissolved in tris-buffered saline with tween (TBS-T) (50 mM Tris base, 150 mM sodium chloride (NaCl), 0.1% (v/v) Tween-20) at room temperature for 1 hour.

T2 sequence (Q5S006 whole entry G2019S): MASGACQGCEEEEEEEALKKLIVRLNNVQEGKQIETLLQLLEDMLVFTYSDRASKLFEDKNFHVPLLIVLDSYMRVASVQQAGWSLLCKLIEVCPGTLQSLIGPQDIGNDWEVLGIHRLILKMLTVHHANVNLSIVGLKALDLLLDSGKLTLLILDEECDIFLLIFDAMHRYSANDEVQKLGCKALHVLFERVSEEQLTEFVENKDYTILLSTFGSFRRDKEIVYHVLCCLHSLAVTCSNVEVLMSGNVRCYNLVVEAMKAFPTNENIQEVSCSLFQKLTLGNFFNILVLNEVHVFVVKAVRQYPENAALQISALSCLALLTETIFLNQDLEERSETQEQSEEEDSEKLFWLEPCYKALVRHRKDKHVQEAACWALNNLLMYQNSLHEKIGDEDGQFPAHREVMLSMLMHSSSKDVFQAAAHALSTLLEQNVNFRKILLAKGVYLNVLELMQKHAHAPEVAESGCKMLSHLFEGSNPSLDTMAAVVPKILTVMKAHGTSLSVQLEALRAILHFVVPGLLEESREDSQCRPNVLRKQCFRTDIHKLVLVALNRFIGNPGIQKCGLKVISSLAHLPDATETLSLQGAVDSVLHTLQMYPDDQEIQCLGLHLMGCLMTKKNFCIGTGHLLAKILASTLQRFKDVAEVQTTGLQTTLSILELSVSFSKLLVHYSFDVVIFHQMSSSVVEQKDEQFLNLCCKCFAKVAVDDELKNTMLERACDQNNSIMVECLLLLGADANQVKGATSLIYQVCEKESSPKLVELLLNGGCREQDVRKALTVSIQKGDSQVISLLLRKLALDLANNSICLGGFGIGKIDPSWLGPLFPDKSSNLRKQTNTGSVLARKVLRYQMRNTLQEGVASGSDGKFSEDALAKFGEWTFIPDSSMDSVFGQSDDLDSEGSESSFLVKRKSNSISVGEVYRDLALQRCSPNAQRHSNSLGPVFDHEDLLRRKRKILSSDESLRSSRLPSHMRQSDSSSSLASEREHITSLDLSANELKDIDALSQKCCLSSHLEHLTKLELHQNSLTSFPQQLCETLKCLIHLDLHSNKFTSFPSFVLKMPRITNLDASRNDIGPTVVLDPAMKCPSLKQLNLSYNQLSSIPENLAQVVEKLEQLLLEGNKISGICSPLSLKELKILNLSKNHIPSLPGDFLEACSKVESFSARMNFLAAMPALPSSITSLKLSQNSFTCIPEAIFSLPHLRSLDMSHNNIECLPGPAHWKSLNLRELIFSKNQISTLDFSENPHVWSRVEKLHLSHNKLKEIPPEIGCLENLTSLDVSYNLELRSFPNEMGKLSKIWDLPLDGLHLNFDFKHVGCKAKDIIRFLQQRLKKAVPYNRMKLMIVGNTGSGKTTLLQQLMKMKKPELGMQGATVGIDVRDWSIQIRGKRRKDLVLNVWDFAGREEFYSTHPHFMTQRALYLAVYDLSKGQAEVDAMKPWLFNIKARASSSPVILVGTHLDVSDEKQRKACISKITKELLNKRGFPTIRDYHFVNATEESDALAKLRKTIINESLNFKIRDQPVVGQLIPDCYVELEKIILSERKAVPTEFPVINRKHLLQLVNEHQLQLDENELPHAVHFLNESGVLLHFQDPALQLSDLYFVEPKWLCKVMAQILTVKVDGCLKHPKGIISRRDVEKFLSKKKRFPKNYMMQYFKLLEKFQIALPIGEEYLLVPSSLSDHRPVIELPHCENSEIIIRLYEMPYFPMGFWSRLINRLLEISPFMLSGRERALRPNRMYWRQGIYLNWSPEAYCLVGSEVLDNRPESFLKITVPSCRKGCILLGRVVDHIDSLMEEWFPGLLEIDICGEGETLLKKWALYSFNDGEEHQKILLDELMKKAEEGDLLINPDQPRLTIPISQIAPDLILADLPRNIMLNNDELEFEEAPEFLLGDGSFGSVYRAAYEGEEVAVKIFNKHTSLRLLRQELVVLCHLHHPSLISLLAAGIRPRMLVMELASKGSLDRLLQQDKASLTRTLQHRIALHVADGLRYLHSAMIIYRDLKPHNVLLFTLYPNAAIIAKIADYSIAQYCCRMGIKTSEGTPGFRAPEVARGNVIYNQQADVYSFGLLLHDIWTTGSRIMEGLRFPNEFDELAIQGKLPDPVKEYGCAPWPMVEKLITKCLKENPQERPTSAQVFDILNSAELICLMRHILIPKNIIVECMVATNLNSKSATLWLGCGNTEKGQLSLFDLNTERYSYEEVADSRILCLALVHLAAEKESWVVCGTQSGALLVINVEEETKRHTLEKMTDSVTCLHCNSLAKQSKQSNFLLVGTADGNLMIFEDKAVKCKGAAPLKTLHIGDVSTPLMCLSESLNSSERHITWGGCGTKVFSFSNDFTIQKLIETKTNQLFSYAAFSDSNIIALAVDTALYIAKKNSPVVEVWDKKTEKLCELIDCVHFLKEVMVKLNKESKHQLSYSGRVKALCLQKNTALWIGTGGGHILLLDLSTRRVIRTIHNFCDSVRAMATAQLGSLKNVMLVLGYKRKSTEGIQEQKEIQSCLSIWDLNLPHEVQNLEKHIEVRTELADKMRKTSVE
T1 sequence (Q5S006 whole entry): as the sequence (Q5S006 whole entry G2019S) above, with S2019G counted along it

SMILES | inhibition at 0.033 µM (Rab10 pThr73 [1]; 33 nM/4 h treatment) | inhibition at 0.033 µM (Rab10 pThr73 [1]; 33 nM/24 h treatment) | inhibition at 1 µM (Rab10 pThr73 [2]; 1 μM/4 h treatment) | inhibition at 1 µM (Rab10 pThr73 [2]; 1 μM/24 h treatment) | EC50 (Rab10 pThr73 [2]) | inhibition at 0.033 µM (Rab10 pThr73 [3]; 33 nM/4 h treatment) | inhibition at 0.033 µM (Rab10 pThr73 [3]; 33 nM/24 h treatment) | inhibition at 1 µM (Rab10 pThr73 [3]; 1 μM/4 h treatment) | inhibition at 1 µM (Rab10 pThr73 [3]; 1 μM/24 h treatment) | EC50 (Rab10 pThr73 [3]) | DC50 (LRRK2^WT) | Dmax (LRRK2^WT) | DC50 (LRRK2^G2019S) | Dmax (LRRK2^G2019S)
CNc1nc(Nc2ccc(C(=O)N3CCN(C[C@H]4CC[C@H](CSC(C)(C)[C@H](NC(=O)C5(F)CC5)C(=O)N5C[C@H](O)CC5C(=O)NCc5ccc(-c6scnc6C)cc5F)CC4)CC3)cc2OC)ncc1Cl (stereo partly drawn) [XL02047, (2S,4R)-1-(®-3-((((1r,4R)-4-((4-(4-((5-chloro-4-(methylamino)pyrimidin-2-yl)amino)-3-methoxybenzoyl)piperazin-1-yl)methyl)cyclohexyl)methyl)thio)-2-(1-fluorocyclopropane-1-carboxamido)-3-methylbutanoyl)-N-(2-fluoro-4-(4-methylthiazol-5-yl)benzyl)-4-hydroxypyrrolidine-2-carboxamide] | 0 to 90% | 30 to 90% | 10 to 100% | 80 to 100% | 73 nM | 0 to 70% | 0 to 80% | 80 to 100% | 80 to 100% | 228 nM | 45 nM | 78% | 60 nM | 79%
CNc1nc(Nc2ccc(C(=O)N3CCC4(CCN(C[C@H]5CC[C@H](CSC(C)(C)C(NC(=O)C6(F)CC6)C(=O)N6C[C@H](O)C[C@H]6C(=O)NCc6ccc(-c7scnc7C)cc6)CC5)CC4)CC3)cc2OC)ncc1Cl (stereo partly drawn) [XL02038, (2S,4R)-1-((S)-3-((((1R,4S)-4-((9-(4-((5-chloro-4-(methylamino)pyrimidin-2-yl)amino)-3-methoxybenzoyl)-3,9-diazaspiro[5.5]undecan-3-yl)methyl)cyclohexyl)methyl)thio)-2-(1-fluorocyclopropane-1-carboxamido)-3-methylbutanoyl)-4-hydroxy-N-(4-(4-methylthiazol-5-yl)benzyl)pyrrolidine-2-carboxamide] | 0 to 90% | 30 to 90% | 10 to 100% | 80 to 100% | 10 nM | 0 to 70% | 0 to 80% | 80 to 100% | 80 to 100% | 14 nM | – | 65% | – | 79%
CNc1nc(Nc2ccc(C(=O)N3CCN(C[C@H]4CO[C@H](CSC(C)(C)[C@@H](NC(=O)C5(F)CC5)C(=O)N5C[C@H](O)C[C@H]5C(=O)NCc5ccc(-c6scnc6C)cc5)CO4)CC3)cc2OC)ncc1Cl [XL02098, (2S,4R)-1-((S)-3-((((2S,5S)-5-((4-(4-((5-chloro-4-(methylamino)pyrimidin-2-yl)amino)-3-methoxybenzoyl)piperazin-1-yl)methyl)-1,4-dioxan-2-yl)methyl)thio)-2-(1-fluorocyclopropane-1-carboxamido)-3-methylbutanoyl)-4-hydroxy-N-(4-(4-methylthiazol-5-yl)benzyl)pyrrolidine-2-carboxamide] | – | – | 80 to 100% | – | 157 nM | – | – | 75 to 90% | – | 282 nM | 50 nM | 59% | 45 nM | 81%
CNc1nc(Nc2ccc(C(=O)N3CCN(CCOCCOCCSC(C)(C)[C@H](NC(=O)C4(F)CC4)C(=O)N4C[C@H](O)C[C@H]4C(=O)NCc4ccc(-c5scnc5C)c(F)c4)CC3)cc2OC)ncc1Cl [XL01123, (2S,4R)-1-((R)-3-((2-(2-(2-(4-(4-f((5-chloro-4-(methylamino)pyrimidin-2-yl)amino)-3-methoxybenzoyl)piperazin-1-yl)ethoxyl)ethoxy)ethyl)thio)-2-(1-fluorocyclopropane-1-carboxamido)-3-methylbutanoyl)-N-(3-fluoro-4-(4-methylthiazol-5-yl)benzyl)-4-hydroxypyrrolidine-2-carboxamide] | 0 to 70% | 0 to 90% | 20 to 100% | 10 to 100% | – | 0 to 40% | 0 to 60% | 10 to 95% | 30 to 100% | – | – | – | – | –

— patent publication US20260001875A1, “AMINOPYRIMIDINYL DERIVATIVES FOR THE TREATMENT OF PARKINSON'S DISEASE” (UNIVERSITY OF DUNDEE, priority 2022, published 2026)
